Measurements reported in patent publication US8513187B2, “Soft protease inhibitors, and pro-soft forms thereof” (priority 2009, dated 2013).
pIC50: −log10 of the molar value.

Columns and labels:
DPP IV = DPP IV (Homo sapiens, UniProt P27487); test: In vitro DPP IV inhibition assay (IC50, GP-AMC substrate); assay type: biochemical; conditions: potency ratio versus oxy-analog compound 11
Description: (§1) FIG. 6 depicts a table outlining various in vitro and in vivo assay results for DPP inhibitors. CLogP values were calculated using ChemDraw Ultra version 11.0. […] All except PREP used the same substrate (GP-AMC), but different concentrations (10 μM for DPP IV, 25 μM for DPP8 and DPP9, and 50 μM for FAP).
(§2) The methods of biological testing used are described in International Patent Application PCT/US06/047853, published as WO/2007/100374, which claims priority to U.S. Provisional Patent Application No. 60/752,017. These methods are herein incorporated in their entirety by reference.
(§3) FIGS. 6-9 depict the results from various biological assays. The CLogP values in these figures were calculated using ChemDraw Ultra version 11.0.

DPP8 = DPP8 (Homo sapiens, UniProt Q6V1X1); test: In vitro DPP8 inhibition assay (IC50, GP-AMC substrate); assay type: biochemical; conditions: DPP IV versus DPP8
Description: as §1, §2, §3

DPP9 [1] = target: T1, DPP9 (Homo sapiens, UniProt Q86TI2); test: In vitro DPP9 inhibition assay (IC50, GP-AMC substrate); assay type: biochemical; conditions: DPP IV versus DPP9
Description: as §1, §2, §3

FAP = target: T2, FAP (Homo sapiens, UniProt Q12884); test: In vitro FAP inhibition assay (GP-AMC substrate); assay type: biochemical
T2 sequence (Q12884 1-760): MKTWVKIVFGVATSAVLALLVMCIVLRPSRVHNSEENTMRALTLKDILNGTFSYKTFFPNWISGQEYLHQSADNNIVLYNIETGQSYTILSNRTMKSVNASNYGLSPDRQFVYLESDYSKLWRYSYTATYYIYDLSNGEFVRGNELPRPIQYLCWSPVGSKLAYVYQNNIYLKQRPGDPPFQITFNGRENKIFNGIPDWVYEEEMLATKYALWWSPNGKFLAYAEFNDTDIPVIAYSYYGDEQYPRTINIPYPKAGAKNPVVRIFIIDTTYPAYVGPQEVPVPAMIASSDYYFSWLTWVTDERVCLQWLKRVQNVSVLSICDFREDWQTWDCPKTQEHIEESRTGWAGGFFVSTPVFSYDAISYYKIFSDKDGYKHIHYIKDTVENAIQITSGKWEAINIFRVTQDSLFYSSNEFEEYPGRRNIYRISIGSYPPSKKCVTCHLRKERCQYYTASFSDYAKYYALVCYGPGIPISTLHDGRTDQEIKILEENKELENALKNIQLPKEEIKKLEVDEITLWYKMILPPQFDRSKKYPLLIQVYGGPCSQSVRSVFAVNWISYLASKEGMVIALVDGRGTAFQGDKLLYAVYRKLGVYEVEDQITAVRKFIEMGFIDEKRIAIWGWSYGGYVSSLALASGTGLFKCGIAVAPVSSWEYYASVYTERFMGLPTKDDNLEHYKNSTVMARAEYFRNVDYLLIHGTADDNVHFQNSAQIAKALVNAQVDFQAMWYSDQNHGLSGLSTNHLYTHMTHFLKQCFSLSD
Description: (§4) FIG. 6 depicts a table outlining various in vitro and in vivo assay results for DPP inhibitors. CLogP values were calculated using ChemDraw Ultra version 11.0. […] The methods of biological testing used are described in International Patent Application PCT/US06/047853, published as WO/2007/100374, which claims priority to U.S. […] These methods are herein incorporated in their entirety by reference. FIGS. 6-9 depict the results from various biological assays. The CLogP values in these figures were calculated using ChemDraw Ultra version 11.0.

PREP = target: T3, PREP (Homo sapiens, UniProt P48147); test: In vitro PREP inhibition assay; assay type: biochemical
T3 sequence (P48147 1-710): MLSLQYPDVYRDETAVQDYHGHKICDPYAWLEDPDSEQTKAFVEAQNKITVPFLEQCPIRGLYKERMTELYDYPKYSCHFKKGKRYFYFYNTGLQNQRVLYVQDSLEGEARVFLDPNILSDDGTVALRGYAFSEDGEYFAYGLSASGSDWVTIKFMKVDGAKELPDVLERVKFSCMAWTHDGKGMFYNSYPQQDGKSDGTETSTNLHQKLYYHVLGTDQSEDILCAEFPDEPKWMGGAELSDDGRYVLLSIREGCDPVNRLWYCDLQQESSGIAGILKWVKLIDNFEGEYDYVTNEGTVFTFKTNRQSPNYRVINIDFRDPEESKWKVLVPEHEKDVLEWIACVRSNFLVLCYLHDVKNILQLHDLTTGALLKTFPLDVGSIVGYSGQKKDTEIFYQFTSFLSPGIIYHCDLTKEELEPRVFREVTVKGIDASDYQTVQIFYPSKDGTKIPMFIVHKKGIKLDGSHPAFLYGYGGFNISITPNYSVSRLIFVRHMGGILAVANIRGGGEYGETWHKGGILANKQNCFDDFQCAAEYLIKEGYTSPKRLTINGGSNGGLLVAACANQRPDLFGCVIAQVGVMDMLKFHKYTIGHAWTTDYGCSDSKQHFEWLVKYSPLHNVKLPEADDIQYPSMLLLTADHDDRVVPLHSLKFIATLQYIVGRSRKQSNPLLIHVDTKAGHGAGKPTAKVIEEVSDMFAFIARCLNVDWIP
Description: as §4

DPP9 [2] = target: T1, DPP9; test: Intracellular IC50 (IC-IC50), intracellular potency against DPP9; assay type: cell-based; conditions: compounds preincubated at pH 2.0 for 4 h
Description: It is important to note that IC-IC50 is not a measure of cell permeability. Like IC50, it is a composite of factors, including cell permeability, potency against DPP9, rate and equilibrium of the intramolecular cyclization reaction, and inhibitor stability, both intrinsic and intracellular.

Sprague-Dawley (SD) rats = conditions: rat, in vivo, 300 mg/kg
Description: In an experiment, 13 male SD rats were given 300 mg/kg of compound 5.

T1 sequence (Q86TI2 whole entry, species assumed): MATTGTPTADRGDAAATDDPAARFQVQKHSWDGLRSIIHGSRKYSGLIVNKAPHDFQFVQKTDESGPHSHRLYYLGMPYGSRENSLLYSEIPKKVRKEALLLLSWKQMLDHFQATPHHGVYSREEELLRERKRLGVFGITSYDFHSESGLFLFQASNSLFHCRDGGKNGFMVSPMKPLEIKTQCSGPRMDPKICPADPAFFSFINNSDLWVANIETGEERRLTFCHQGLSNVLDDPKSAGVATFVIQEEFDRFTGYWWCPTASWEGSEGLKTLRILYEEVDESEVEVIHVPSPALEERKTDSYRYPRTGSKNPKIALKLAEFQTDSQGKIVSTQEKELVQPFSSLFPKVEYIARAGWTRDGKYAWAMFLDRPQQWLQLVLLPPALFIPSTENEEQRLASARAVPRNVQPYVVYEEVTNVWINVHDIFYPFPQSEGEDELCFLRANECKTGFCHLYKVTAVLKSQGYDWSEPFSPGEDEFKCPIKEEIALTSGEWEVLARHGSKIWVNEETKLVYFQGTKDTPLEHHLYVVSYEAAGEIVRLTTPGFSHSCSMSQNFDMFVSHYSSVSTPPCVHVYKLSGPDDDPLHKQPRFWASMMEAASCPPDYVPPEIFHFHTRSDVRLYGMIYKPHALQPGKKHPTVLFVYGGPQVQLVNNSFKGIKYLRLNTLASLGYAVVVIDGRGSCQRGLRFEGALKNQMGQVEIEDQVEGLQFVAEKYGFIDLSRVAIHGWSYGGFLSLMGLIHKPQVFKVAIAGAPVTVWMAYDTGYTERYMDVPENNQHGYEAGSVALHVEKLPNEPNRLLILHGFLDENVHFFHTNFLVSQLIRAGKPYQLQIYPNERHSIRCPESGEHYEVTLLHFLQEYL
DPP8, sequence (Q6V1X1 whole entry, species assumed): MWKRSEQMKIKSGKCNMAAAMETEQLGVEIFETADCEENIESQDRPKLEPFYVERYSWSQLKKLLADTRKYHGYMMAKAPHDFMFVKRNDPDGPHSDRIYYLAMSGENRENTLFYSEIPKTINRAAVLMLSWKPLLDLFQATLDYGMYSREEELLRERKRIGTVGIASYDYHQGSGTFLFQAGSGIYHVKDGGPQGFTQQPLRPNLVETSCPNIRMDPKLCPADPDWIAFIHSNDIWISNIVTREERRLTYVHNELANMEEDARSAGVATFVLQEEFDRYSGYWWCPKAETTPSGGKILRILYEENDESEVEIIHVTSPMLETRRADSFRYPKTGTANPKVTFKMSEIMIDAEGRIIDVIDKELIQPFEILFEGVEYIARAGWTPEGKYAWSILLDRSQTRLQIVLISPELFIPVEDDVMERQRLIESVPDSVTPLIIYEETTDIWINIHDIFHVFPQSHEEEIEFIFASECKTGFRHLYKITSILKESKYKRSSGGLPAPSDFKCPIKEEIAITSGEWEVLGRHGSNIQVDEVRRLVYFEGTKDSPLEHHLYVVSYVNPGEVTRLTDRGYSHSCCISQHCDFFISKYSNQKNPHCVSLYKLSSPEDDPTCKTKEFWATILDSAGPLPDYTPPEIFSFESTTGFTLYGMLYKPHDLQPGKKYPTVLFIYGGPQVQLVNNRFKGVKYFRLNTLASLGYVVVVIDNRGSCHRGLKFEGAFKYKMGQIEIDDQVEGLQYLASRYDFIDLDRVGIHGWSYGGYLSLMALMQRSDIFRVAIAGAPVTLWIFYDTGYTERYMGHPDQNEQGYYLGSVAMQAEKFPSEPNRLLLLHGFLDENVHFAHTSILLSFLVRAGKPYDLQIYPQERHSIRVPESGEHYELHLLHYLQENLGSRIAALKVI
DPP IV, sequence (P27487 whole entry, species assumed): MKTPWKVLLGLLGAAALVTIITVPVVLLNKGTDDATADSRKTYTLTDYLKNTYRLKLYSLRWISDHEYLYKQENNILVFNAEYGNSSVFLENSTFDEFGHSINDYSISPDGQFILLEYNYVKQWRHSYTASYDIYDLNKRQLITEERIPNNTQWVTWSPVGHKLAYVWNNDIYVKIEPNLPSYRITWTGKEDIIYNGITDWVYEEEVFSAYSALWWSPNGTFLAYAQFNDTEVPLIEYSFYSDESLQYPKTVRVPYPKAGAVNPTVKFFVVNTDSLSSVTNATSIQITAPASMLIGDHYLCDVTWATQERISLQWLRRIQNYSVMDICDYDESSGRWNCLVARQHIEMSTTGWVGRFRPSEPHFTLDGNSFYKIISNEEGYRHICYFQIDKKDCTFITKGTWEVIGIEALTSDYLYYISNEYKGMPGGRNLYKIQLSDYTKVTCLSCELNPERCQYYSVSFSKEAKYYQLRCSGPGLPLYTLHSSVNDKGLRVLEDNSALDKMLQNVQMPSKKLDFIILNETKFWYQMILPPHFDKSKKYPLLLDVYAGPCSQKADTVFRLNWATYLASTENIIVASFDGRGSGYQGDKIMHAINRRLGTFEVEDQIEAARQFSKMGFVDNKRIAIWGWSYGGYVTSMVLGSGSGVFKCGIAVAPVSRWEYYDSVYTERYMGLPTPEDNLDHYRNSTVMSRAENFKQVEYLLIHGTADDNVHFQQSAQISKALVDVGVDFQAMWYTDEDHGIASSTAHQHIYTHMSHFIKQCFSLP

CN(CB(O)O)C(=S)[C@@H](N)CCC(=O)O.Cl [Compound 5, Glu-boroSar[thioxo amide]hydrochloride]
more potent inhibitor of DPP IV than compound 11 (DPP IV): about 66 fold
more potent for DPP IV than for DPP8 (selectivity) (DPP8): 13,000 ×
more potent for DPP IV than for DPP9 (selectivity) (DPP9 [1]): 6,000 ×
selectivity against FAP in vitro (FAP): good selectivity
selectivity against PREP in vitro (PREP): good selectivity
pIC50 (DPP9 [2]): 3.08
signs of toxicity after 24 h (Sprague-Dawley (SD) rats): no sign of toxicity
